± gives the expanded uncertainty stated by the source.
Assay: mn = molality of the nth substance listed, in mol/kg
Conditions: 101 kPa, Liquid; for speed of sound: Linear variable-path acoustic interferometer; for mass density: Pycnometric method

C[C@@H](O)[C@H](N)C(=O)O [L-threonine] + O
Conditions	mass density [kg/m3]	speed of sound [m/s]
275.15 K, m1 = 0.0337	1001.56 ± 0.48	1415.3 ± 2.8
275.15 K, m1 = 0.0672	1003.12 ± 0.48	1418.7 ± 2.8
275.15 K, m1 = 0.1009	1004.6 ± 0.48	1422 ± 2.8
275.15 K, m1 = 0.1338	1006.09 ± 0.48	1425.3 ± 2.8
275.15 K, m1 = 0.1674	1007.23 ± 0.48	1428.6 ± 2.8
275.15 K, m1 = 0.2002	1008.62 ± 0.48	1431.8 ± 2.7
275.15 K, m1 = 0.2334	1010.1 ± 0.48	1435.1 ± 2.7
275.15 K, m1 = 0.2689	1011.67 ± 0.48	1438.6 ± 2.7
275.15 K, m1 = 0.3009	1012.89 ± 0.48	1441.8 ± 2.7
275.15 K, m1 = 0.3345	1014.39 ± 0.48	1445.1 ± 2.7
275.15 K, m1 = 0.3679	1015.8 ± 0.48	1448.4 ± 2.7
275.15 K, m1 = 0.4054	1017.24 ± 0.48	1452.2 ± 2.7
279.15 K, m1 = 0.0337	1001.55 ± 0.47	1433.1 ± 2.8
279.15 K, m1 = 0.0671	1002.96 ± 0.47	1436.2 ± 2.8
279.15 K, m1 = 0.101	1004.52 ± 0.47	1439.3 ± 2.8
279.15 K, m1 = 0.1342	1005.69 ± 0.47	1442.3 ± 2.8
279.15 K, m1 = 0.1665	1006.97 ± 0.47	1445.3 ± 2.8
279.15 K, m1 = 0.2002	1008.49 ± 0.47	1448.4 ± 2.8
279.15 K, m1 = 0.235	1009.98 ± 0.47	1451.6 ± 2.8
279.15 K, m1 = 0.2673	1011.46 ± 0.47	1454.5 ± 2.8
279.15 K, m1 = 0.2996	1012.62 ± 0.47	1457.5 ± 2.8
279.15 K, m1 = 0.3683	1015.5 ± 0.48	1463.8 ± 2.7
279.15 K, m1 = 0.4005	1016.91 ± 0.48	1466.8 ± 2.7
283.15 K, m1 = 0.0224	1000.69 ± 0.46	1449 ± 2.8
283.15 K, m1 = 0.0677	1002.52 ± 0.46	1453.1 ± 2.8
283.15 K, m1 = 0.101	1004.25 ± 0.46	1456.1 ± 2.8
283.15 K, m1 = 0.1362	1005.58 ± 0.46	1459.2 ± 2.8
283.15 K, m1 = 0.1665	1006.81 ± 0.46	1461.9 ± 2.8
283.15 K, m1 = 0.2005	1008.32 ± 0.46	1465 ± 2.8
283.15 K, m1 = 0.2345	1009.56 ± 0.46	1468.1 ± 2.8
283.15 K, m1 = 0.2725	1011.21 ± 0.47	1471.5 ± 2.8
283.15 K, m1 = 0.2996	1012.33 ± 0.47	1473.9 ± 2.8
283.15 K, m1 = 0.3351	1013.76 ± 0.47	1477.1 ± 2.8
283.15 K, m1 = 0.3677	1015.01 ± 0.47	1480 ± 2.8
283.15 K, m1 = 0.3928	1016.16 ± 0.47	1482.3 ± 2.8

CC(C)[C@H](N)C(=O)O [L-valine] + O
Conditions	mass density [kg/m3]	speed of sound [m/s]
275.15 K, m1 = 0.034	1000.99 ± 0.48	1416.5 ± 2.8
275.15 K, m1 = 0.0672	1001.86 ± 0.48	1420.9 ± 2.8
275.15 K, m1 = 0.1028	1002.93 ± 0.48	1425.7 ± 2.7
275.15 K, m1 = 0.1349	1003.79 ± 0.48	1429.9 ± 2.7
275.15 K, m1 = 0.1675	1004.61 ± 0.48	1434.3 ± 2.7
275.15 K, m1 = 0.2021	1005.54 ± 0.48	1438.9 ± 2.7
275.15 K, m1 = 0.233	1006.4 ± 0.48	1443 ± 2.7
275.15 K, m1 = 0.2667	1007.34 ± 0.48	1447.5 ± 2.7
275.15 K, m1 = 0.3009	1008.25 ± 0.48	1452 ± 2.7
275.15 K, m1 = 0.3669	1009.99 ± 0.48	1460.8 ± 2.7
275.15 K, m1 = 0.4066	1011.08 ± 0.48	1466.1 ± 2.7
279.15 K, m1 = 0.0341	1000.9 ± 0.47	1434.1 ± 2.8
279.15 K, m1 = 0.0671	1001.87 ± 0.47	1438.1 ± 2.8
279.15 K, m1 = 0.1009	1002.75 ± 0.47	1442.1 ± 2.7
279.15 K, m1 = 0.1418	1003.8 ± 0.47	1447 ± 2.7
279.15 K, m1 = 0.1696	1004.51 ± 0.47	1450.4 ± 2.7
279.15 K, m1 = 0.2021	1005.51 ± 0.47	1454.3 ± 2.7
279.15 K, m1 = 0.2382	1006.36 ± 0.47	1458.6 ± 2.7
279.15 K, m1 = 0.2782	1007.44 ± 0.47	1463.4 ± 2.7
279.15 K, m1 = 0.2983	1007.95 ± 0.47	1465.8 ± 2.7
279.15 K, m1 = 0.3342	1008.96 ± 0.47	1470.2 ± 2.7
279.15 K, m1 = 0.3652	1009.77 ± 0.47	1473.9 ± 2.7
279.15 K, m1 = 0.3951	1010.57 ± 0.47	1477.5 ± 2.7
283.15 K, m1 = 0.0341	1000.61 ± 0.46	1450.7 ± 2.8
283.15 K, m1 = 0.0669	1001.41 ± 0.46	1454.2 ± 2.8
283.15 K, m1 = 0.1015	1002.33 ± 0.46	1458 ± 2.7
283.15 K, m1 = 0.1349	1003.08 ± 0.46	1461.6 ± 2.7
283.15 K, m1 = 0.1666	1004.17 ± 0.46	1465 ± 2.7
283.15 K, m1 = 0.2025	1005.15 ± 0.46	1468.9 ± 2.7
283.15 K, m1 = 0.2321	1006.04 ± 0.46	1472.1 ± 2.7
283.15 K, m1 = 0.2787	1007.06 ± 0.46	1477.1 ± 2.7
283.15 K, m1 = 0.297	1007.53 ± 0.46	1479.1 ± 2.7
283.15 K, m1 = 0.3314	1008.49 ± 0.46	1482.8 ± 2.7
283.15 K, m1 = 0.3663	1009.41 ± 0.46	1486.6 ± 2.7
283.15 K, m1 = 0.3972	1010.11 ± 0.47	1489.9 ± 2.7

N=C(N)NCCC[C@H](N)C(=O)O [L-arginine] + O
Conditions	mass density [kg/m3]	speed of sound [m/s]
275.15 K, m1 = 0.0381	1002.25 ± 0.48	1416.9 ± 2.8
275.15 K, m1 = 0.0808	1004.4 ± 0.48	1422.5 ± 2.8
275.15 K, m1 = 0.1223	1006.6 ± 0.48	1427.9 ± 2.7
275.15 K, m1 = 0.1659	1008.86 ± 0.48	1433.5 ± 2.7
275.15 K, m1 = 0.2092	1010.74 ± 0.48	1439.2 ± 2.7
275.15 K, m1 = 0.2503	1012.81 ± 0.48	1444.5 ± 2.7
275.15 K, m1 = 0.2909	1014.82 ± 0.48	1449.8 ± 2.7
275.15 K, m1 = 0.3371	1017.05 ± 0.48	1455.8 ± 2.7
275.15 K, m1 = 0.3742	1018.75 ± 0.49	1460.6 ± 2.7
275.15 K, m1 = 0.4153	1020.74 ± 0.49	1465.9 ± 2.7
275.15 K, m1 = 0.4529	1022.49 ± 0.49	1470.8 ± 2.7
275.15 K, m1 = 0.5067	1024.97 ± 0.49	1477.8 ± 2.7
279.15 K, m1 = 0.0381	1002.12 ± 0.47	1434.5 ± 2.8
279.15 K, m1 = 0.0808	1004.33 ± 0.47	1439.6 ± 2.8
279.15 K, m1 = 0.1225	1005.88 ± 0.47	1444.5 ± 2.8
279.15 K, m1 = 0.1847	1009.11 ± 0.47	1451.9 ± 2.8
279.15 K, m1 = 0.2092	1010.49 ± 0.47	1454.8 ± 2.7
279.15 K, m1 = 0.25	1012.51 ± 0.47	1459.7 ± 2.7
279.15 K, m1 = 0.2932	1014.5 ± 0.48	1464.8 ± 2.7
279.15 K, m1 = 0.3459	1017.1 ± 0.48	1471.1 ± 2.7
279.15 K, m1 = 0.3742	1018.39 ± 0.48	1474.4 ± 2.7
279.15 K, m1 = 0.4177	1020.39 ± 0.48	1479.6 ± 2.7
279.15 K, m1 = 0.4601	1022.35 ± 0.48	1484.6 ± 2.7
279.15 K, m1 = 0.5176	1025.01 ± 0.48	1491.4 ± 2.7
283.15 K, m1 = 0.0379	1001.53 ± 0.46	1451.4 ± 2.8
283.15 K, m1 = 0.0806	1003.83 ± 0.46	1456.3 ± 2.8
283.15 K, m1 = 0.1228	1005.96 ± 0.46	1461.2 ± 2.8
283.15 K, m1 = 0.1755	1008.59 ± 0.46	1467.2 ± 2.8
283.15 K, m1 = 0.2052	1009.81 ± 0.47	1470.7 ± 2.8
283.15 K, m1 = 0.2496	1012.14 ± 0.47	1475.8 ± 2.8
283.15 K, m1 = 0.291	1014.12 ± 0.47	1480.5 ± 2.8
283.15 K, m1 = 0.3386	1016.31 ± 0.47	1486 ± 2.8
283.15 K, m1 = 0.3757	1017.99 ± 0.47	1490.3 ± 2.8
283.15 K, m1 = 0.416	1019.92 ± 0.47	1495 ± 2.8
283.15 K, m1 = 0.4566	1021.75 ± 0.47	1499.6 ± 2.8
283.15 K, m1 = 0.5031	1023.84 ± 0.47	1505 ± 2.8

From the NIST ThermoML archive (doi:10.1016/j.jct.2012.12.010)
